Reference: US20140066410A1, “INHIBITORS OF BROMODOMAINS AS MODULATORS OF GENE EXPRESSION” (ICAHN SCHOOL OF MEDICINE AT MOUNT SINAI, priority 2011, published 2014)

What was measured:
Format in all cases: cell-based
cardiomyocytes = test: TUNEL apoptosis assay in primary neonatal rat cardiomyocytes
Protocol: The ability of ischemin to inhibit apoptosis in cardiomyocytes under DNA damage stress was evaluated. Primary neonatal rat cardiomyocytes were isolated and maintained in culture, then, treated with doxorubicin for 24 hours to induce DNA damage in the presence or absence of ischemin. The DNA damage induced by apoptosis was analyzed by the TUNEL (terminal deoxynucleotidyl transferase dUTP nick and end labeling) assay, in which a terminal deoxynucleotidyl transferase was used to identify 3′-OH of DNA generated by DNA fragmentation resulting from apoptosis, and then labels it with biotinylated dUTP. The latter was then detected with avidin-conjugated FITC for specific staining. Neonatal rat ventricular myocytes (NRVMs) were isolated by enzymatic dissociation of cardiac ventricle from 1-to-2-day-old Sprague-Dawley pups using the Worthington neonatal cardiomyocyte isolation system (Worthington). Briefly, the pups were anesthetized and their hearts were excised. The ventricular tissues were minced in ice cold HBSS and then digested with trypsin overnight at 4° C. followed by collagenase treatment for 45 min at 37° C. […] After treatment with compounds overnight and then doxorubicin for 24 hours, the intensities of luminecnce were read. […]

p53 = test: p21 luciferase assay (p53 inhibition) in U20S cells upon doxorubicin
Protocol: U20S Cells were transfected with p21 luciferase (1 μg) and renilla luciferase (100 ng) vectors in 6 well plate format using Fugene 6 (Roche). Briefly, total of 1.1 micrograms of vector was incubated with […] of Fugene 6 reagent for 30 min. After 3-4 hours of transfection, cell were treated with compounds for overnight, and then exposed to 300 nanogram of doxorubicin for next 24 hours. In these experiments, DMSO, transfected cells with empty vector and cell without doxorubicin were used as controls. DMSO concentration is maintained at 0.01%. Transfected cells with doxorubicin treatment were used as positive control. The luciferase activity was estimated by following the manufacturer's instruction (Promega) in a luminometer. […] The inhibitory activity (IC50) of a small molecule on p21 luciferase activity was obtained from the average of three biological replicates using PRISM software.

p53 binding to CBP = target: T1, p53 binding to CBP (Homo sapiens, UniProt Q92793); test: HA-CBP and Flag-p53 pull-down assay in HEK 293T cells; conditions: doxorubicin treatment
T1 construct: expressed in transfected cells; host or cells: HEK 293T
Protocol: HA-CBP and Flag-p53 were transfected into human embryonic kidney (HEK) 293T cells with recommended amount of Fugene 6 (Roche). After transfection, the HA-CBP and Flag-p53 co-transfected cells were treated with ischemin in the presence or absence of doxorubicin. To test the inhibitory potential of ischemin against CBP and p53 association, CBP was first immuno-precipitated by pulling-down with HA-agarose beads (Sigma) and its association with p53 was then determined with western blot using anti-Flag antibody (Sigma).
It was also investigated whether ischemin down-regulates p53 by blocking p53 binding to CBP. Haemaglutinin-tagged CBP(HA-CBP) and Flag-tagged p53 (Flag-p53) was overexpressed in human embryonic kidney (HEK) 293T cells.

T1 sequence (Q92793 whole entry): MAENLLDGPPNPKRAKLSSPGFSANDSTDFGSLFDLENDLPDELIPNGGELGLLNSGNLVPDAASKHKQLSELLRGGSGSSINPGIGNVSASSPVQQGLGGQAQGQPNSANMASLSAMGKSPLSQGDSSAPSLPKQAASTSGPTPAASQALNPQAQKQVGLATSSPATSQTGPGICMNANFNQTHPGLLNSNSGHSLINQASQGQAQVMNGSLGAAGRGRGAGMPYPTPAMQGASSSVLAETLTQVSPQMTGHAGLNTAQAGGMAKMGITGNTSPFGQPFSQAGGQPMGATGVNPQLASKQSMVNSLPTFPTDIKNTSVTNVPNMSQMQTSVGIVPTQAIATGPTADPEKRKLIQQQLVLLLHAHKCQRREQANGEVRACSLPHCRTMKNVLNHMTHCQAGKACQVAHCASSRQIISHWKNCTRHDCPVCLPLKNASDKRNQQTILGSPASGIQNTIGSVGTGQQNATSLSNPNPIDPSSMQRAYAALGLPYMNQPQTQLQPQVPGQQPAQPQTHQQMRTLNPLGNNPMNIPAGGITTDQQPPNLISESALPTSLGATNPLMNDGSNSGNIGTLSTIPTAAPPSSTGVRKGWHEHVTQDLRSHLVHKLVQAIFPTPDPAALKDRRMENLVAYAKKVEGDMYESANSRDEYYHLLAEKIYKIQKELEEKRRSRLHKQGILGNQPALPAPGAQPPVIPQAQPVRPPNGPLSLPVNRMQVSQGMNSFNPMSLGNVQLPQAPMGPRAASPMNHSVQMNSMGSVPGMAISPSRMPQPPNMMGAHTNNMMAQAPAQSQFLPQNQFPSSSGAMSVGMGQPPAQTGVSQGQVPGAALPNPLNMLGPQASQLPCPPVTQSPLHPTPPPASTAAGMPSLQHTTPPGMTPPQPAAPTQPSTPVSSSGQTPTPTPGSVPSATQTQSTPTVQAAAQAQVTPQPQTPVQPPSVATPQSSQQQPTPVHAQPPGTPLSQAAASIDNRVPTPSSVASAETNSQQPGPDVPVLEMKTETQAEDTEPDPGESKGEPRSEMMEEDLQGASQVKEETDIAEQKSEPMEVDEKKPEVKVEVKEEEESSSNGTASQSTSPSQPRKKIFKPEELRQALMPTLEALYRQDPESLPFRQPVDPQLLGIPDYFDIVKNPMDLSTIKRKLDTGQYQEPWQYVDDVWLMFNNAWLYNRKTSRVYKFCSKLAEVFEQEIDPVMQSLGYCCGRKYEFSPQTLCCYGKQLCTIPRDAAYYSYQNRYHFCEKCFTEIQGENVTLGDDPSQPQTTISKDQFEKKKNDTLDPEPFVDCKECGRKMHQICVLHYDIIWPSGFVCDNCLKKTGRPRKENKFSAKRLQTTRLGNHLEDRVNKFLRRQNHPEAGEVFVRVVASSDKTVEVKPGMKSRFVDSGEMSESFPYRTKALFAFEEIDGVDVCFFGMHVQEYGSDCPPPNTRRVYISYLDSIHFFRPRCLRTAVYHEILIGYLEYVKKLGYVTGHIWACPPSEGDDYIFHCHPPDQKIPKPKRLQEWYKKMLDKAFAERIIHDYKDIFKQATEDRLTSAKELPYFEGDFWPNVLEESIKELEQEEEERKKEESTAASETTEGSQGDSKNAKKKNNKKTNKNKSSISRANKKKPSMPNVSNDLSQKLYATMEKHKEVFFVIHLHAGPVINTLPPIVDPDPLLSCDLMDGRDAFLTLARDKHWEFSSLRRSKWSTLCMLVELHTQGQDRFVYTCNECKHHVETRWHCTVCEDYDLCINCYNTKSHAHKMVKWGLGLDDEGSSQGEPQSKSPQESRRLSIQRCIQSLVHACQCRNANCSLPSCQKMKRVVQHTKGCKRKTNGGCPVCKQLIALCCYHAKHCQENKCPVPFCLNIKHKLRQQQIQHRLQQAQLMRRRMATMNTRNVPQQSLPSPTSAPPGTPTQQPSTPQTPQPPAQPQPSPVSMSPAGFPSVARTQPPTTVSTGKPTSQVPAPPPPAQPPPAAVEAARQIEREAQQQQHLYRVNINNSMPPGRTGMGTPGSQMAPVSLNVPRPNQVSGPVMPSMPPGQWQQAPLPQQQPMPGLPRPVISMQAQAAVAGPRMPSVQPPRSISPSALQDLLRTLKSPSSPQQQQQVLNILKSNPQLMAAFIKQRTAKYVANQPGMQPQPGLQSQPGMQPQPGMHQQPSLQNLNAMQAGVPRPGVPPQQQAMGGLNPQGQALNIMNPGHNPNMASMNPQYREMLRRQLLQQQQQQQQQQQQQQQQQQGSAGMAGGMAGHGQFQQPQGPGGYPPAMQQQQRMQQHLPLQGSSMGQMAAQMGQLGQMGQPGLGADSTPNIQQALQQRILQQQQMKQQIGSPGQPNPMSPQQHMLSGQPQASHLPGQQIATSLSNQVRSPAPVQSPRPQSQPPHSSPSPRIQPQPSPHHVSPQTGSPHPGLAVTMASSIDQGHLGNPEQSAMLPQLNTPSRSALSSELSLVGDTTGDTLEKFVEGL

## Cc1cc(/N=N/c2cc(S(=O)(=O)O)c(C)cc2C)c(N)cc1O [Ischemin/MS120, 5-(2-amino-4-hydroxy-5-methylphenylazo)-2,4-dimethylbenzenesulfonic acid]
cardiomyocytes; ischemin alone
  Toxicity in cardiomyocytes: no toxicity
cardiomyocytes; neonatal rat cardiomyocytes, doxorubicin 24 hours
  Inhibition of doxorubicin-induced apoptosis (TUNEL): effectively inhibit
p53; U20S cells, FIG. 1A
  Inhibition of p21 luciferase activity: Dose-dependent inhibition
p53; compared with lead / ortho-methyl analogs
  Ability to inhibit p53-dependent p21 luciferase activity / p21 expression (SAR, words): nearly completely suppresses
p53; compounds at 50 μM, doxorubicin-treated U20S cells
  inhibition at 50 µM: 104%
p53 binding to CBP
  Inhibition of p53 binding to CBP: inhibiting in a dose-dependent manner
